Here are results for 2 compounds from patent US20160346266A1, “REDUCTION OR PREVENTION OF ALCOHOL REACTION WITH DIETARY SUPPLEMENTS” (NOGLO LLC, priority 2012, published 2016).

Assay [1] relates to glutathione. The settings on record: supplementation, two weeks; cited from earlier work.
The test system of assay [2] is volunteers who experience all symptoms of the alcohol reaction. Kind of assay: Studies in individuals (Example 5): symptoms of the alcohol reaction after two standard alcohol beverages. It counts as in vivo, human. Conditions: Subject 4; 1500 mg daily for two weeks + dose one hour before two standard alcohol beverages. The method, then:
In order to evaluate the efficacy of certain embodiments of the invention, subjects took various forms of the supplements daily for two weeks. The subjects then consumed two standard alcohol beverages and their symptoms were evaluated. One hour prior to drinking the alcohol beverages, the subjects also consumed another dose of the formulation. Overt physical symptoms and self-reported physical symptoms were used as assessments for the alcohol reaction. These experimental tests include eleven subjects. All experimental subjects were unpaid volunteers who experience all symptoms of the alcohol reaction. The following symptoms were assessed: facial redness, heart rate, self-evaluated body temperature, headache, nausea, and general physical discomfort. These are symptoms of the alcohol reaction that have all been directly linked with an increase in blood acetaldehyde.

Assay [3] relates to NAD. The settings on record: nicotinamide supplementation; one study; cited from earlier work.

For the compound `O=C1O[C@H]([C@@H](O)CO)C(O)=C1O` [Vitamin C], the “increase levels of glutathione” value in assay [1] is 50%.

Regarding `NC(=O)c1cccnc1` [nicotinamide], in assay [2], the facial redness result is given as “reductions” and the heart rate entry was “reductions”. Further, in assay [3], the “raising NAD concentrations” value is given as 24 fold.
